# Test results as given in patent US20160009752A1, “[…]-OXIMINO-AMINOALKYLETHERS AND PROCESS FOR PREPARATION THEREOF, USEFUL AS ANTIDIABETIC AND […] AGENTS” (COUNCIL OF SCIENTIFIC & INDUSTRIAL RESEARCH, priority 2013, published 2016).
# Marks after values point to notes of the source that are not given here.
# How the values were obtained:
# sucrose loaded rat = assay: Sucrose loaded rat model (SLM), oral tolerance test; format: in vivo; parameters: % Antihyperglycemic activity SLM: concentration or dose not given beside the values; details: for % Antihyperglycemic activity SLM: Table 2, sucrose loaded rat
# Source text: On the day of experiment blood glucose of all the overnight fasted animals was checked by Glucostrips (Roche) using Glucometer (ACCU-CHEK II; Roche Diagnostics, USA). […] Animals were divided into groups consisting of five animals in each. […] The test compounds and standard drug was always prepared in the vehicle 1% gum acacia. […] Food (not water) was removed from the cages during the experimental period. […] Comparing the AUC of test sample or drug treated groups compared to control group determined the percent improvement in OGTT by test sample and standard drugs and termed as antihyperglycaemic activity. Statistical analysis between the groups was done by employing Students t test
# [1] = test system: sucrose challenged low dosed STZ-induced diabetic rats; assay: Sucrose challenged low dosed streptozotocin-induced diabetic rats (STZ-S); format: in vivo, rat; details: for % Antihyperglycemic activity STZ-S 0-5 hr / % Antihyperglycemic activity STZ-S 0-24 hr: Table 2
# Protocol: Fasting blood glucose level of each animal was measured after 48 hours post STZ injection by Glucostrips (Roche) using Glucometer (ACCU-CHEK II; Roche Diagnostics, USA) and animals showing blood glucose level above 280 mg/dl were considered as diabetic. The diabetic rats with fasting blood glucose values varying between […] were included in this study. Animals were divided into groups consisting of five animals in each. Group one was considered as a control group, where as the other groups were termed as experimental groups. […] The test samples and standard drug (Metformin) was always prepared in the vehicle 1% gum acacia. […] Food (not water) was removed from the cages during the experimental period. […] The percent decline in AUC of the experiment group compared to sham treated control group termed as % antihyperglycaemic activity. Statistical analysis between the groups was done by employing Students t test.
# [2] = test system: high fructose high fat fed Syrian golden hamsters; assay: Antidyslipidemic activity in high fructose high fat fed Syrian golden hamsters; format: in vivo
# Protocol: Male Syrian golden hamsters weighing 100-120 g were divided into groups each containing six animals. Dyslipidemia was produced by feeding the animals with high fructose high fat diet (60% fructose, 13% fat) for 30 to 40 days. Dyslipidemic hamsters were divided into groups based on their Serum lipid profile. The dyslipidemic animals had free access to HFD and water throughout the experimental period. The fine suspension of 14b was fed orally at a dose of 30 mg/kg for 7 days to the animals. Control animals were given drug vehicle only, served as sham treated control. Body weight and diet intake of each animal group were recorded daily to check the effect of the test samples on food intake and body weight of the animals. At the end of the experiment period i.e. on day 8th, the blood of each animal was withdrawn from retro-orbital plexus. After keeping the tubes for 15 min. in cold, Serum was separated. Biochemical analysis of Serum was performed on the same day for triglycerides (TG), total cholesterol (TC) and HDL-cholesterol and LDL-cholesterol contents using Cobas Integra 400 plus analyzer kits. All statistical analysis will be performed with Graph Pad Prism Software. One way ANOVA, all pair wise multiple comparison procedure (Tukey test). Data will be reported as mean±SEM.
# [3] = test system: STZ-induced diabetic rats; assay: Streptozotocin-induced diabetic rat model (STZ); format: in vivo; details: 100 mg/kg
# Protocol: Male albino rats (Sprague Dawley Strain) of body weight 160±20 g were procured from the colony of CDRI Animal House. 4 to 5 animals were kept in one polypropylene cage and acclimatized for one week in the new environment. The animals were made diabetic by injecting streptozotocin (STZ) intraperitoneally to the overnight starved animals at a dose of 60 mg/kg prepared in 100 mM citrate buffer (pH 4.5). Fasting blood glucose level of each animal was measured after 48 hours post STZ injection by Glucostrips (Roche) using Glucometer (ACCU-CHEK II; Roche Diagnostics, USA) and animals showing blood glucose level above 280 mg/dl were considered as diabetic. The diabetic rats with fasting blood glucose values varying between 280-450 mg/dl were included in this study. Animals were divided into groups consisting of five animals in each. Group one was considered as a control group, where as the other groups were termed as experimental groups. Rats of experimental group were usually given 100 mg/kg body weight of the test samples unless stated otherwise and standard drug i.e. metformin, respectively. The test samples and standard drug i.e. metformin was always prepared in the vehicle 1% gum acacia. 30 min post administration of the test samples/vehicle/standard drug, blood glucose levels of the animals of all the groups were measured at 30, 60, 90, 120, 180, 240, 300 and 1440 min. Food (not water) was removed from the cages during the experimental period. A plot was drawn between time and blood glucose levels on x and y axis, respectively and the area under curve (AUC) between 0 to 300 min were calculated of each group. The percent decline in AUC of the experiment group compared to sham treated control group termed as % antihyperglycaemic activity. Statistical comparison between the groups was done by employing Student's ‘t’ test.
smiles,measurement,setting,value
"C/C(=N\OCCN1CCOCC1)C1=CC[C@H]2[C@@H]3CC=C4C[C@@H](O)CC[C@]4(C)[C@H]3CC[C@]12C [Compound 11c, 3β-Hydroxypregna-5,16-dien-20-one-O-(2-morpholin-4-yl-ethyl)-oxime]",% Antihyperglycemic activity SLM,sucrose loaded rat,10.2%
"COc1ccccc1N1CCN(CC(O)CO/N=C(/C)C2CCC3C4CC=C5CC(O)CCC5(C)C4CCC23C)CC1 (stereo not drawn) [Compound 16d, 3β-Hydroxy-pregna-5-en-20-one-O-{2-hydroxy-3-[4-(2-methoxyphenyl)-Piperzin-1-yl]-propyl}-oxime]",melting point,,145 to 149 °C
same,% Antihyperglycemic activity SLM,sucrose loaded rat,13.9%
"C/C(=N\OCCN1CCCCCC1)C1=CC[C@H]2[C@@H]3CC=C4C[C@@H](O)CC[C@]4(C)[C@H]3CC[C@]12C [Compound 11b, 3β-Hydroxypregna-5,16-dien-20-one-O-(2-azepan-1-yl-ethyl)-oxime]",melting point,,127 to 130 °C
same,% Antihyperglycemic activity SLM,sucrose loaded rat,16.5%
"C/C(=N\OCCN1CCCC1)[C@H]1CC[C@H]2[C@@H]3CC=C4C[C@@H](O)CC[C@]4(C)[C@H]3CC[C@]12C [Compound 14a, 3β-Hydroxy-pregna-5-en-20-one-O-(2-pyrrolidin-1-yl-ethyl)-oxime]",melting point,,140 to 142 °C
same,% Antihyperglycemic activity STZ-S 0-5 hr,[1],9.96%
same,% Antihyperglycemic activity STZ-S 0-24 hr,[1],3.07%
same,% Antihyperglycemic activity SLM,sucrose loaded rat,42.4%
same,"anti-diabetic activity, in words",sucrose loaded rat; all the models including db/+ mice models,better anti-diabetic activity
"C/C(=N\OCC(O)CNC(C)(C)C)[C@H]1CC[C@H]2[C@@H]3CC=C4C[C@@H](O)CC[C@]4(C)[C@H]3CC[C@]12C (stereo partly drawn) [Compound 16a, 3β-Hydroxy-pregna-5-en-20-one-O-[2-hydroxy-3-tert.-butylamino-propyl]-oxime]",melting point,,> 200 °C
same,% Antihyperglycemic activity SLM,sucrose loaded rat,37.7%
"CC(C)OC(=O)C(C)(C)Oc1ccc(C(=O)c2ccc(Cl)cc2)cc1 [Fenofibrate, reference compound]",enhancement of lipoprotein lipase,[2]; 30 mg/kg oral,21.1%
same,enhancement of serum HDL-cholesterol,[2]; 30 mg/kg oral,9.8%
same,lowering of LDL-cholesterol (LDL-C) level,[2]; 30 mg/kg oral,30.1%
same,lowering of serum glycerol level,[2]; 30 mg/kg oral,22.4%
same,lowering of serum triglycerides level (TG),[2]; 30 mg/kg oral,28.9%
same,"Glycerol, change vs HFD control (in parentheses)","[2]; 30 mg/kg p.o., 7 days",(−22.4)* %
same,"HDL-C, change vs HFD control (in parentheses)","[2]; 30 mg/kg p.o., 7 days",(+9.80) %
same,"LDL-C, change vs HFD control (in parentheses)","[2]; 30 mg/kg p.o., 7 days",(−30.1)** %
same,"Lipoprotein lipase, change vs HFD control (in parentheses)","[2]; 30 mg/kg p.o., 7 days",(+21.1)* %
same,"TG, change vs HFD control (in parentheses)","[2]; 30 mg/kg p.o., 7 days",(−28.9)* %
same,Chol,"[2]; 30 mg/kg p.o., 7 days, serum",277.8 ± 22.3 mg/dL
same,HDL-C,"[2]; 30 mg/kg p.o., 7 days, serum",156.8 ± 12.8 mg/dL
same,Lipoprotein lipase,"[2]; 30 mg/kg p.o., 7 days, serum",36.8 ± 3.60 U/L
same,NEFA,"[2]; 30 mg/kg p.o., 7 days, serum",5.40 ± 0.30 mmol/L
same,TG,"[2]; 30 mg/kg p.o., 7 days, serum",529.8 ± 30.7 mg/dL
"CN(C)C(=N)N=C(N)N [Metformin, reference compound]",% Antihyperglycemic activity 0-300 min,[1]; 100 mg/kg,23.7%**
same,% Antihyperglycemic activity 0-1440 min,[1]; 100 mg/kg,23.1%**
same,"Blood glucose level, 0 min post sucrose load",[1]; 100 mg/kg,222.2 ± 19.9 mg/dL
same,"Blood glucose level, 30 min post sucrose load",[1]; 100 mg/kg,457.4 ± 17.2 mg/dL
same,"Blood glucose level, 60 min post sucrose load",[1]; 100 mg/kg,524.2 ± 18.9 mg/dL
same,"Blood glucose level, 90 min post sucrose load",[1]; 100 mg/kg,468.2 ± 11.3 mg/dL
same,"Blood glucose level, 120 min post sucrose load",[1]; 100 mg/kg,416.0 ± 12.2 mg/dL
same,"Blood glucose level, 180 min post sucrose load",[1]; 100 mg/kg,373.6 ± 11.4 mg/dL
same,"Blood glucose level, 240 min post sucrose load",[1]; 100 mg/kg,345.0 ± 10.6 mg/dL
same,"Blood glucose level, 300 min post sucrose load",[1]; 100 mg/kg,310.8 ± 2.6 mg/dL
same,"Blood glucose level, 1440 min post sucrose load",[1]; 100 mg/kg,392.8 ± 9.9 mg/dL
same,% Antihyperglycemic activity 0-300 min,"[1]; 100 mg/kg, listed as metformin",23.7%
same,% Antihyperglycemic activity 0-1440 min,"[1]; 100 mg/kg, listed as metformin",23.1%
same,% Antihyperglycemic activity STZ-S 0-5 hr,[1],25.8%
same,% Antihyperglycemic activity STZ-S 0-24 hr,[1],33.2%
same,"Blood glucose level, 0 min post sucrose load",[3],358.4 ± 14.5 mg/dL
same,"Blood glucose level, 30 min post sucrose load",[3],450.0 ± 21.8 mg/dL
same,"Blood glucose level, 60 min post sucrose load",[3],419.0 ± 10.5 mg/dL
same,"Blood glucose level, 90 min post sucrose load",[3],399.0 ± 7.7 mg/dL
same,"Blood glucose level, 120 min post sucrose load",[3],351.0 ± 16.0 mg/dL
same,"Blood glucose level, 180 min post sucrose load",[3],349.6 ± 10.1 mg/dL
same,"Blood glucose level, 240 min post sucrose load",[3],337.0 ± 7.7 mg/dL
same,"Blood glucose level, 300 min post sucrose load",[3],299.8 ± 5.0 mg/dL
same,"Blood glucose level, 1440 min post sucrose load",[3],445.6 ± 13.9 mg/dL
same,"Blood glucose profile, 0 min post glucose load",sucrose loaded rat; 100 mg/kg,94.8 ± 2.1 mg/dL
same,"Blood glucose profile, 30 min post glucose load",sucrose loaded rat; 100 mg/kg,111.4 ± 7.8 mg/dL
same,"Blood glucose profile, 60 min post glucose load",sucrose loaded rat; 100 mg/kg,105.8 ± 2.1 mg/dL
same,"Blood glucose profile, 90 min post glucose load",sucrose loaded rat; 100 mg/kg,94.0 ± 2.0 mg/dL
same,"Blood glucose profile, 120 min post glucose load",sucrose loaded rat; 100 mg/kg,84.2 ± 1.3 mg/dL
same,% Antihyperglycaemic activity (improvement in OGTT post sucrose load),"sucrose loaded rat; 100 mg/kg, AUC 0-120 min vs control, normal rats",24.4*** %
same,% Antihyperglycemic activity SLM,sucrose loaded rat,21.1%
"CCN(CC)CCO/N=C(\C)C1=CC[C@H]2[C@@H]3CC=C4C[C@@H](O)CC[C@]4(C)[C@H]3CC[C@]12C [Compound 11d, 3β-Hydroxypregna-5,16-dien-20-one-O-(2-diethylamino-ethyl)-oxime]",melting point,,156 to 160 °C
same,% Antihyperglycemic activity SLM,sucrose loaded rat,13.1%
"CC(=NO)[C@H]1CC[C@H]2[C@@H]3CC=C4C[C@@H](O)CC[C@]4(C)[C@H]3CC[C@]12C [Compound 10., 3β-hydroxy-pregna-5-en-20-one-oxime]",% Antihyperglycemic activity SLM,sucrose loaded rat,13.9%
"C/C(=N/OCC(O)CN1CCN(c2ccccc2)CC1)[C@H]1CC[C@H]2[C@@H]3CC=C4C[C@@H](O)CC[C@]4(C)[C@H]3CC[C@]12C (stereo partly drawn) [Compound 16c, 3β-Hydroxy-pregna-5-en-20-one-O-[2-hydroxy-3-(4-phenyl-piperazin-1-yl)-propyl]-oxime]",% Antihyperglycemic activity SLM,sucrose loaded rat,17.8%
"C/C(=N\OCCN1CCCCC1)C1=CC[C@H]2[C@@H]3CC=C4C[C@@H](O)CC[C@]4(C)[C@H]3CC[C@]12C [Compound 11a, 3β-Hydroxy-pregna-5,16-dien-20-one-O-(2-piperidinyl-ethyl)-oxime]",melting point,,135 to 138 °C
same,% Antihyperglycemic activity SLM,sucrose loaded rat,27.15%
"C/C(=N\OCC(O)CNC(C)C)C1CCC2C3CC=C4CC(O)CCC4(C)C3CCC12C (stereo not drawn) [Compound 16b, 3β-Hydroxy-pregna-5-en-20-one-O-[2-hydroxy-3-iso-propylamino-Propyl)-oxime]",% Antihyperglycemic activity SLM,sucrose loaded rat,13.6%
